In US4822780A, “Carboxamide compounds” (Otsuka Pharmaceutical Factory, Inc., priority 1987, dated 1989):

System: vascular smooth muscles (thoracic aorta)
Experiment: Calcium antagonistic action in vascular smooth muscles (spiral piece of thoracic aorta, Ca2+ dose-reaction curve in presence of KCl)
Type: cell-based, Male Wistar rats
Details: isolated rat aorta spiral piece, 37° C.; KCl 5×10^-2 M; CaCl2 10^-4 to 3×10^-2 M; test compound 3×10^-7 to 10^-5 M; Van Rossum method; 5 samples
Procedure: Male Wistar rats weighing about 250 g were anesthetized with ether, hit hard in the occipital region, and the both common carotid arteries were cut to let blood, and the thoracic aorta was removed. Fat tissues depositing on the extracted blood vessel were removed, and a spiral piece of 2 mm×50 mm was prepared.
This spiral piece of aort was kept at 37° C., and was suspended in an organ bath containing Ca^2+ --free Krebs--Henseleit solution ventilated with mixed gas of 95% O2 and 5% CO2 and its contraction reaction was measured in the following method by way of an isotonic transducer.
In the first place, to the spiral piece deprived of Ca^2+, CaCl2 solution of 10^-4 to 3×10^-2 M was comulatively added in the presence of KCl of 5×10^-2 M, and the dose-reaction curve by Ca^2+ was determined, and after removing Ca^2+ again, the dose-reaction curve by Ca^2+ was determined in the presence of the test compound, and from the difference of these reactions, the pA2 value of Ca^2+ antagonistic action of the test compound was calculated. The concentration of the test compound was 3×10^-7 to 10^-5 M. (The pA2 value was calculated according to the method proposed by Van Rossum, J. M., in Arch. Int. Pharmarcodyn., 143, 299-330, 1963).

Question: With CCOP(=O)(Cc1ccc(C(=O)Nc2ccccc2O)cc1)OCC [Example 13] as the molecule, how does the “pA2 value of Ca^2+ antagonistic action” value read?
Answer: The value was 6.52 ± 0.10.

Question: How did the “pA2 value of Ca^2+ antagonistic action” value turn out when CCOP(=O)(Cc1ccc(C(=O)N(Cc2ccccc2)c2ccccc2)cc1)OCC [Example 45, 4-diethoxyphosphinylmethyl-N-benzyl-N-phenylbenzamide] was run?
Answer: The value was 6.75 ± 0.08.

Question: With CCOP(=O)(Cc1ccc(C(=O)N(Cc2ccc([N+](=O)[O-])cc2)c2ccccc2)cc1)OCC [Example 46] as the molecule, how does the “pA2 value of Ca^2+ antagonistic action” value read?
Answer: Its value is 6.07 ± 0.12.

Question: CCOP(=O)(Cc1ccc(C(=O)N(Cc2ccccc2)c2ccc(OC)cc2)cc1)OCC [Example 56, 4-diethoxyphosphinylmethyl-N-benzyl-N-(4-methoxyphenyl)benzamide] was tested. Which “pA2 value of Ca^2+ antagonistic action” value did it give?
Answer: The value was 6.99 ± 0.11.

Question: How did the “pA2 value of Ca^2+ antagonistic action” value turn out when CCOP(=O)(Cc1cccc(C(=O)N(Cc2ccc(C(=O)OC)cc2)c2ccccc2)c1)OCC [Example 74] was run?
Answer: Its value is 6.50 ± 0.09.
